This note sets out measurements from ChEMBL document CHEMBL1127558, “Synthesis and characterization of selective fluorescent ligands for the neurokinin NK2 receptor” (J Med Chem, 1994).

Numbered stars: 1 amine (or outer) side, 2 acyl side, 3 side chain; on linkers, the order of the positions; unused ones are H or OH. Square brackets hold non-standard residues; d marks the D form. Peptide text beside a SMILES is read from it. * marks the point of attachment. X1 = C[C@@H](C(=O)[*:2])N(c1ccc([N+](=O)[O-])c2nonc12)[*:1]; Nle = CCCC[C@H](N)C(=O)O; Bz = O=C(c1ccccc1)*

For the assay, the target named is T1, Substance-K receptor (Homo sapiens, UniProt P21452).
T1 sequence (P21452 whole entry): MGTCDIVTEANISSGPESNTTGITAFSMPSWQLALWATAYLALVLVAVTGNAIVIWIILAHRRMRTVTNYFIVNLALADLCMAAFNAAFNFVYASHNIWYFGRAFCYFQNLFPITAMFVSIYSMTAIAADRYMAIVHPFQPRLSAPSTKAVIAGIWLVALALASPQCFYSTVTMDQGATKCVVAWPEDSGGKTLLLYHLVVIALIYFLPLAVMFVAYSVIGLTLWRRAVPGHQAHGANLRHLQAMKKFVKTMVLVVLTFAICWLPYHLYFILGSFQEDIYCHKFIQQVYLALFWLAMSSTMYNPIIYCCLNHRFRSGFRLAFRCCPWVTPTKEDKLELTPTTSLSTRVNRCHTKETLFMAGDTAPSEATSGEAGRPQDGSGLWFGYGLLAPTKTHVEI
Put plainly: Binding affinity against human NK2 receptors expressed in CHO cells using [3H]GR-100679 as radioligand. The class given is cell-based.

On to `CCCC[C@H](NC(=O)[C@@H]1CCCN1C(=O)[C@H]1CCCN1C(=O)[C@H](Cc1ccccc1)NC(=O)[C@@H](Cc1c[nH]c2ccccc12)NC(=O)[C@H](C)NC(=O)[C@H](C)/N=C(/S)Nc1ccc2c(c1)C(=O)OC21c2ccc(O)cc2Oc2cc(O)ccc21)C(N)=O`, for which the “Log Ki” value (cho) is on record as -5.99. One may read the Ki as the equilibrium dissociation constant of an inhibitor or competing ligand from its target. On to `CCCC[C@H](NC(=O)[C@@H]1CCCN1C(=O)[C@H]1CCCN1C(=O)[C@H](Cc1ccccc1)NC(=O)[C@@H](Cc1c[nH]c2ccccc12)NC(=O)[C@H](C)NC(=O)[C@H](CCCCNC(=S)Nc1ccc2c(c1)C(=O)OC21c2ccc(O)cc2Oc2cc(O)ccc21)NC(=O)c1ccccc1)C(N)=O`, for which the Ki is 24.5 nM. In other words, the double-digit nanomolar range. Still for that read-out and setting: the figure for `CCCC[C@H](NC(=O)[C@@H]1CCCN1C(=O)[C@@H]1CCCN1C(=O)[C@H](Cc1ccccc1)NC(=O)[C@H](Cc1c[nH]c2ccccc12)NC(=O)[C@H](C)NC(=O)[C@H](C)NC(=O)c1ccccc1)C(N)=O` (Bz-AAWFPP[Nle]-NH2) is 0.155 nM; for `CCCC[C@H](NC(=O)[C@@H]1CCCN1C(=O)[C@@H]1CCCN1C(=O)[C@H](Cc1ccccc1)NC(=O)[C@H](Cc1c[nH]c2ccccc12)NC(=O)[C@H](C)NC(=O)[C@H](C)Nc1ccc([N+](=O)[O-])c2nonc12)C(N)=O` (H-[X1]AWFPP[Nle]-NH2) it is 87.1 nM.
